The values below come from patent US20020183333A1, “Compositions and methods for chemotherapy having reduced nephrotoxicity” (priority 2000, published 2002).

The structures appear in SMILES notation. Entries after “also recorded” stand apart in the source; their conditions may differ.

The subject of experiment [1] is LLC-WRC 256 cells. Nature of the experiment: Antineoplastic efficacy of CP by trypan blue exclusion assay (percentage of non-viable cells). The class given is cell-based, rat. As to conditions: for effect of the inhibitor on the antineoplastic efficacy of cisplatin: 30 min preincubation with DFO 1 mM, DMSO 5 mM, CM 2 mM or PB 1 mM, then cisplatin 500 μg/ml for 5 hours, FIGS. 2 and 3. The protocol:
LLC-WRC 256 cells (Walker rat carcinoma cells) purchased from American Type Culture Collection (ATCC, Rockville, Maryland) were maintained in 75 cm^2 tissue culture flasks containing Medium 199 supplemented with 5% fetal bovine serum (Gibco, Gaithersburg, Md.) in a humidified atmosphere of 95% air-5% CO2 at 37° C. For the experimental study, the cell monolayers were subcultured with 0.25% trypsin into a 12-well tissue culture plate until confluence. The antineoplastic efficacy of CP in LLC-WRC 256 cells was measured by the cell viability determined by the trypan blue exclusion assay. Cells failing to exclude the dye were considered non-viable, and data expressed as the percentage of non-viable cells. Antineoplastic efficacy of CP was examined as previously described (Rawlings and Roberts, 1986, Mutation Research 166(2): 157-168.). The cells were incubated with various concentrations of CP (0-600 μg/ml) at different time points (0-6 h) in HBSS at 37° C. At the end of the incubation, the cell viability was determined. Confluent LLC-WRC 256 cell monolayer was incubated with antineoplastic dose of CP for a period of time necessary to induce consistent antineoplastic activity (CP 500 μg/ml in HBSS for 5 hours at 37° C., based on the. initial observation). The cell monolayers were preincubated with iron chelator, deferoxamine (1 mM) or hydroxyl radical scavenger, dimethyl sulfoxide (5 mM) at 37° C. for 30 minutes, washed twice with HBSS and then followed by the addition of CP. LLC-WRC 256 cell monolayers were preincubated with cimetidine (2 mM) or piperonyl butoxide (1 mM) at 37° C. for 30 min, washed with HBSS twice and then followed by the addition of CP (500 μg/ml for 5 hours at 37° C.)

Experiment [2] relates to LLC-WRC 256 cells. Nature of the experiment: Hydroxyl radical formation, deoxyribose degradation method. The class given is cell-based, rat. As to conditions: CP 500 μg/ml for 2.5 hours, n=4; control 0.45±0.03. The procedure: Confluent cell monolayers were washed with HBSS and then incubated with cytotoxic dose of CP in HBSS at 37° C. for a period of time before substantial cell killing occurred (500 μg/ml for 2.5 hours). 2-deoxy-D-ribose at a final concentration of 3 mM was added to the medium just prior to the incubation. At the end of the incubation, the medium was collected for the measurement of hydroxyl radical formation by deoxyribose degradation method as described by Halliwell et al., 1988, Meth. Biochem. Anal 33:59-90. In brief, 0.5 ml of the incubation medium was mixed with 0.5 ml of 1% (w/v). 5 thiobarbituric acid in 50 mM NaOH and 0.5 ml of 2.8% (w/v) aqueous trichloroacetic acid, heated at 100° C. for 15 min, cooled and followed by extraction with 1.5ml n-butanol. The absorbance at 532 nm of the resulting supernatant was then taken, and the hydroxyl radical level was calculated by using the extinction coefficient of 156 mM^−1 cm^−1.

Experiment [3] deals with LLC-WRC 256 cells. Nature of the experiment: Catalytic iron release into the medium, bleomycin assay. The class given is cell-based, rat. As to conditions: CP 500 μg/ml for 2.5 hours, n=6; control 2.44±0.59. The protocol: Confluent […] 256 cells were washed twice with Chelex-treated HBSS and then incubated with a cytotoxic, dose of CP in Chelex-treated HBSS for a period of time before substantial cell killing occurred (500 μg/ml for 2.5 hours at 37° C., based on the time course study). The catalytic iron released into the medium was measured by the bleomycin assay, as described below. Iron capable of catalyzing free radical reactions (catalytic iron) was measured by the bleomycin assay as utilized in our previous studies (Baliga et al. , 1998, Kidney Int. 53:394-401, and Baliga et al., 1998, Kidney Int. 54:1562-1569). All reagents except for the experimental samples were made up in Chelex-treated pyrogen-free water and shaken with Chelex 100 to remove as much contaminating iron as possible. The reaction mixture contained in order: 0.5 ml of calf thymus DNA (1 mg/ml), 0.05 ml of bleomycin sulfate (1 mg/ml), 0.1 ml MgCl2 (50 mM), 0.1 ml of sample, 0.1 ml of ascorbic acid (8 mM), and either HCl (50 mM) or NaOH (50 mM) to adjust pH in the range of 7.2-7.8. […] The reaction mixture was then heated at 100° C. for 15 minutes, cooled and the resulting chromogen measured using spectrophotometer at A 532 nm. The amount of bleomycin detectable iron in the test sample was calculated from the standard curve and the results expressed as nmol/mg cellular protein recovered from the cell monolayer.

For experiment [4], the system named is cardiotoxicity induced by doxorubicin. As to conditions: women with breast cancer; cited from earlier work.

Take `N.N.[Cl][Pt][Cl]` [CP, cisplatin]: in the experiment with LLC-WRC 256 cells [1] (CP 500 μg/ml, time course 0-6 hours, FIG. 1B), the “time of exposure that results in significant cell death” value turned out to be 5 h. Moreover, the “low dose at which significant cell death occurs” value in the experiment with LLC-WRC 256 cells [1] (LLC-WRC 256 cells, 4 hour incubation, CP 0-600 μg/ml, FIG. 1A) turned out to be 50 µg/mL. Besides, in the experiment with LLC-WRC 256 cells [1] (LLC-WRC 256 cells, concentration dependent effects, FIG. 1A), the “CP dose required to produce submaximal injury” value is 500 µg/mL. For the same compound, the “generation of hydroxyl radical” value in the experiment with LLC-WRC 256 cells [2] came to 0.41±0.03 nmol/mg protein. In addition, the catalytic iron release in the experiment on LLC-WRC 256 cells [3] was found to be 2.78±0.41 nmol/mg protein.

As to `CN/C(=N/CCSCc1nc[nH]c1C)NC#N` [CM, cimetidine], the “effect of the inhibitor on the antineoplastic efficacy of cisplatin” value in the experiment on LLC-WRC 256 cells [1] is “does not reduce the antineoplastic efficacy of CP; also recorded: do not effect the antineoplastic activity of CP”.

As to `C[S+](C)[O-]` [DMSO, dimethyl sulfoxide], the “effect of the inhibitor on the antineoplastic efficacy of cisplatin” value in the experiment with LLC-WRC 256 cells [1] is “CP still functions as an antineoplastic compound; also recorded: does not reduce the antineoplastic efficacy of CP”.

For `C[C@@H](CN1CC(=O)NC(=O)C1)N1CC(=O)NC(=O)C1` [dexrazoxane], the “effect on frequency and severity of doxorubicin-induced cardiotoxicity” value in experiment [4] was “decrease the frequency and severity of cardiotoxicity”.
